Reference: patent publication US6329189A, “Enzyme producing tartaric acid ether compound and process for producing tartaric acid ether compounds using this enzyme” (Kikkoman Corporation, priority 1998, dated 2001)
Structures can show the parent of a compound that is named as a salt.

How the values were obtained:
[1] = test system: enzyme producing tartaric acid ether compound; experiment: Km value from Lineweaver-Burk's plot; format: biochemical, Aspergillus oryzae; conditions: compound used as substrate
[2] = biological target: T1, histidine decarboxylase (HDC) (Homo sapiens, UniProt P19113); conditions: from JP-A-9-110857 and JP-A-10-59956; cited from earlier work
T1 sequence (P19113 1-662): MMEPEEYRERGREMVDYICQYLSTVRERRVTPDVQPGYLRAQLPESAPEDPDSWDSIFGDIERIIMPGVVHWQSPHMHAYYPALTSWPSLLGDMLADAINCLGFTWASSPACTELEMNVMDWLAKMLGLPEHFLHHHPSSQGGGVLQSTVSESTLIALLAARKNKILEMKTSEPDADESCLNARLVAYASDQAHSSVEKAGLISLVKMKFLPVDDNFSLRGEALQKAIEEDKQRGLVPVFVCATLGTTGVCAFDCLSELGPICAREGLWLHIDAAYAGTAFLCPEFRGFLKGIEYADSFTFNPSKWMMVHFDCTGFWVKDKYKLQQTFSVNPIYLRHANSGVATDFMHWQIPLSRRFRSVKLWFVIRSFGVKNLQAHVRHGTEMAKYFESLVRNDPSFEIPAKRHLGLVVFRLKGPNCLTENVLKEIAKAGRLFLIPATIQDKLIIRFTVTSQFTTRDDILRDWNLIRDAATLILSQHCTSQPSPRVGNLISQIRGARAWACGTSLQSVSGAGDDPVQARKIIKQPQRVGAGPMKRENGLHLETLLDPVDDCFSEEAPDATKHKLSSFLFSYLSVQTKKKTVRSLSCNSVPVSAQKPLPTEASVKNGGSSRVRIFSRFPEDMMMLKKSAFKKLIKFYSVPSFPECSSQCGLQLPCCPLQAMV

[3] = Solubility in solvents of the enzyme reaction products; format: physicochemical; conditions: water, methanol, DMSO
[4] = test system: enzyme producing tartaric acid ether compound; experiment: Substrate specificity of the present enzyme in the presence of (±)-trans-epoxysuccinic acid; format: biochemical, Aspergillus oryzae; conditions: for Action of the enzyme to the phenolic hydroxyl groups of the substrate (in words): in the presence of (±)-trans-epoxysuccinic acid; for Relative activity (%): substrate in the presence of (±)-trans-epoxysuccinic acid, decrement of genistein as substrate expressed as 100
Experimental: The activities of the present enzyme to the various substrate compounds having a phenolic hydroxyl group(s) shown in Table 1 in the presence of (±)-trans-epoxysuccinic acid were measured and shown as relative activities (%) with reference to the activity to genistein which was expressed as 100. The measurement of activity was conducted under the same conditions as used for the determination of titer described later.
Enzyme titer was determined by the following method. The amount of the enzyme that produces 1 μmol of 2-hydroxy-3-[[5-hydroxy-3-(4-hydroxyphenyl)-4-oxo-4H-1-benzopyran-7-yl]oxy]-butanedioic acid in one minute in the reaction of the following formula (6) is expressed as 1 U. [drawing 1]
Substrate solution I: 60 mM (±)-trans-epoxysuccinic acid (Tokyo Kasei Kogyo Co., Ltd.) was dissolved in 100 ml of a 50 mM sodium acetate-acetic acid buffer (pH 6.0), and the solution was adjusted to pH 6.0 with sodium hydroxide.
Substrate solution II: Prepared by dissolving 0.3 mmol of genistein (Funakoshi Co., Ltd.) in 100 ml of dimethyl sulfoxide.
50 mmol of sodium acetate and 40 mmol of manganese sulfate were dissolved in distilled water, and the solution was adjusted to pH 6.0 with acetic acid and made one litre.
(1) 0.175 ml of the buffer, 0.1 ml of the substrate solution I and 0.01 ml of an enzyme solution were pipetted into a microtube, and the mixed solution was preincubated at 37° C. for 5 minutes.
(2) The above solution was mixed with 0.025 ml of the substrate solution II and reacted at 37° C. for 15 minutes, after which 0.01 ml of concentrated hydrochloric acid was added to stop the reaction. Used as control was a solution prepared in the same way as described above except that 0.01 ml of the buffer was added in place of 0.01 ml of the enzyme solution.
2-hydroxy-3-[[5-hydroxy-3-(4-hydroxyphenyl)-4-oxo-4H-1-benzopyran-7-yl]oxy]-butanedioic acid produced from the reaction of the formula (6) was determined by HPLC under the following conditions: […]
Column: Wakosil-II5C18HG (4.6 mm×30 mm+4.6 mm×250 mm, mfd. by Wako Pure Chemical Industries, Ltd.).
Eluent: distilled water containing 0.05% of trifluoroacetic acid and 28.8% of acetonitrile.
Detecting wavelengh: 260 nm.

[5] = test system: enzyme producing tartaric acid ether compound; experiment: Influence of metallic ions on the action of the present enzyme; format: biochemical, Aspergillus oryzae; conditions: for Relative activity (%): activity with no addition = 100%; for Influence on the activity of the present enzyme (in words): presence of the ion or EDTA
Experimental: "Relative activity (%)" in Table 2 is the value relative to the activity (expressed as 100) observed when no metallic ion was added.
The activity observed with no addition of metallic ions was expressed as 100%.

Action of the enzyme to the phenolic hydroxyl groups of the substrate (in words) [4] | Relative activity (%) [4] [%] | Structure (SMILES) | also measured
acts in a favorable way | 92 | O=c1cc(-c2ccc(O)cc2)oc2cc(O)cc(O)c12 [apigenin] | 
acts in a favorable way | 321 | O=c1cc(-c2ccccc2)oc2cc(O)c(O)c(O)c12 [baicalein] | 
acts in a favorable way | 86 | COc1ccc(-c2coc3cc(O)cc(O)c3c2=O)cc1 [biochanin A] | 
acts in a favorable way | 58 | O=c1oc2cc(O)ccc2c2oc3cc(O)ccc3c12 [courmestrol] | 
acts in a favorable way | 52 | O=c1c(-c2ccc(O)cc2)coc2cc(O)ccc12 [daidzein] | 
acts in a favorable way | 278 | O=c1c(O)c(-c2ccc(O)cc2)oc2cc(O)cc(O)c12 [kaempferol] | 
acts faintly | 4 | O=c1cc(CO)occ1O [kojic acid] | 
acts in a favorable way | 194 | O=C1C[C@@H](c2ccc(O)cc2)Oc2cc(O)cc(O)c21 [naringenin] | 
acts in a favorable way | 316 | O=C1/C(=C/c2ccc(O)c(O)c2)Oc2cc(O)ccc21 [sulfuretin] | 
acts faintly | 4 | COc1cc(C(=O)O)ccc1O [vanillic acid] | 

Continued, molecule first:

Structure (SMILES) | Action of the enzyme to the phenolic hydroxyl groups of the substrate (in words) [4] | Relative activity (%) [4] [%] | also measured
O=C(O)[C@H]1O[C@@H]1C(=O)O (relative stereo) [(±)-trans-epoxysuccinic acid] |  |  | Km [1]: 2580 µM
O=C(O)C(O)C(Oc1cc(O)c2c(=O)c(-c3ccc(O)cc3)coc2c1O)C(=O)O (single isomer, unassigned) [2-[[5,8-dihydroxy-3-(4-hydroxyphenyl)-4-oxo-4H-1-benzopyran-7-yl]oxy]-3-hydroxy-butanedioic acid] |  |  | Inhibitory action against histidine decarboxylase (HDC) [2]: prominent inhibitory action
O=C(O)C(O)C(Oc1ccc2c(=O)c(-c3ccc(O)cc3)coc2c1)C(=O)O (single isomer, unassigned) [2-hydroxy-3-[[3-(4-hydroxyphenyl)-4-oxo-4H-1-benzopyran-7-yl]oxy]-butanedioic acid] |  |  | Inhibitory action against histidine decarboxylase (HDC) [2]: prominent inhibitory action
O=C(O)C(O)C(Oc1cc(O)c2c(=O)c(-c3ccc(O)cc3)coc2c1)C(=O)O (single isomer, unassigned) [2-hydroxy-3-[[5-hydroxy-3-(4-hydroxyphenyl)-4-oxo-4H-1-benzopyran-7-yl]oxy]-butanedioic acid] |  |  | Inhibitory action against histidine decarboxylase (HDC) [2]: prominent inhibitory action
O=C(O)C(O)C(Oc1cc(O)c2c(c1)O[C@H](c1ccc(O)c(O)c1)[C@@H](O)C2=O)C(=O)O (single isomer, unassigned) [Example 5 enzyme reaction product] |  |  | Solubility in solvents [3]: soluble in water, methanol and DMSO
O=C(/C=C/c1ccc(O)c(O)c1)c1c(O)cc(O)cc1O [2',4',6',3,4-pentahydroxychalcone] | acts in a favorable way | 115 | 
O=c1c(-c2ccc(O)cc2)coc2cc(O)c(O)cc12 [4',6,7-trihydroxyisoflavone] | acts in a favorable way | 182 | 
Cc1cc(=O)oc2cc(O)cc(O)c12 [5,7-dihydroxy-4-methylcoumarin] | acts in a favorable way | 107 | 
O=C1COc2cc(O)ccc21 [6-hydroxy-2H-benzofuran-3-one] | acts in a favorable way | 135 | 
O=C1c2c(O)cc(O)cc2O[C@H](c2ccc(O)c(O)c2)[C@H]1O [(+)-taxifolin] | acts in a favorable way | 106 | 
[Ca+2] [Ca^2+] |  |  | Relative activity (%) ([5]; 20 mM metallic ion): 140%; Influence on the activity of the present enzyme (in words) [5]: enhanced
[Co+2] [Co^2+] |  |  | Relative activity (%) ([5]; 20 mM metallic ion): 236%; Influence on the activity of the present enzyme (in words) [5]: enhanced
[Cu+2] [Cu^2+] |  |  | Relative activity (%) ([5]; 20 mM metallic ion): 0%; Influence on the activity of the present enzyme (in words) [5]: greatly inhibited
O=C(O)CN(CCN(CC(=O)O)CC(=O)O)CC(=O)O [EDTA, ethylenediamine-N,N,N'N'-tetraacetic acid disodium salt] |  |  | Relative activity (%) ([5]; 5 mM EDTA): 12%; Influence on the activity of the present enzyme (in words) [5]: greatly inhibited
O=C1C(=Cc2ccc(O)c(O)c2)Oc2cc(OC(C(=O)O)C(O)C(=O)O)ccc21 (centres unmarked) [Example 2 enzyme reaction product] |  |  | Solubility in solvents [3]: soluble in water, methanol and DMSO
O=C(O)C(O)C(Oc1ccc(-c2oc3cc(OC(C(=O)O)C(O)C(=O)O)cc(O)c3c(=O)c2O)cc1)C(=O)O (centres unmarked) [Example 3 enzyme reaction product II] |  |  | Solubility in solvents [3]: soluble in water, methanol and DMSO
O=C(O)C(O)C(Oc1cc(O)c2c(=O)c(O)c(-c3ccc(O)cc3)oc2c1)C(=O)O (centres unmarked) [Example 3 enzyme reaction product I] |  |  | Solubility in solvents [3]: soluble in water, methanol and DMSO
O=C1CC(c2ccc(OC(C(=O)O)C(O)C(=O)O)cc2)Oc2cc(OC(C(=O)O)C(O)C(=O)O)cc(O)c21 (centres unmarked) [Example 4 enzyme reaction product II] |  |  | Solubility in solvents [3]: soluble in water, methanol and DMSO
O=C1CC(c2ccc(O)cc2)Oc2cc(OC(C(=O)O)C(O)C(=O)O)cc(O)c21 (centres unmarked) [Example 4 enzyme reaction product I] |  |  | Solubility in solvents [3]: soluble in water, methanol and DMSO
O=C(O)C(O)C(Oc1cc(O)c2c(=O)cc(-c3ccc(O)cc3)oc2c1)C(=O)O (centres unmarked) [Example 6 enzyme reaction product] |  |  | Solubility in solvents [3]: soluble in water, methanol and DMSO
[Fe+2] [Fe^2+] |  |  | Relative activity (%) ([5]; 20 mM metallic ion): 125%; Relative activity (%) ([5]; 20 mM metallic ion, listed as Fe^3+): 33%; Influence on the activity of the present enzyme (in words) [5]: enhanced
[Mg+2] [Mg^2+] |  |  | Relative activity (%) ([5]; 20 mM metallic ion): 220%; Influence on the activity of the present enzyme (in words) [5]: enhanced
[Mn+2] [Mn^2+] |  |  | Relative activity (%) ([5]; 20 mM metallic ion): 268%; Influence on the activity of the present enzyme (in words) [5]: enhanced
[Ni+2] [Ni^2+] |  |  | Relative activity (%) ([5]; 20 mM metallic ion): 198%; Influence on the activity of the present enzyme (in words) [5]: enhanced
[Zn+2] [Zn^2+] |  |  | Relative activity (%) ([5]; 20 mM metallic ion): 416%; Influence on the activity of the present enzyme (in words) [5]: enhanced
Oc1cc(O)c2c(c1)OC(c1ccc(O)c(O)c1)C(O)C2 (centres unmarked) [catechin] |  | 16 | 
O=c1c(-c2ccc(O)cc2)coc2cc(O)cc(O)c12 [genistein] | acts in a favorable way | 100 | Km [1]: 1040 µM
O=c1c(O)c(-c2ccc(O)c(O)c2)oc2cc(O)cc(O)c12 [quercetin] |  | 31 | 
